Results as given in patent US8562949B2, “Radiolabeled dihydrotetrabenazine derivatives and their use as imaging agents” (The Trustees of the University of Pennsylvania, priority 2006, dated 2013).
Read-outs that look alike come from different tables or passages of the source.

Columns and labels:
VMAT2 [1] = target: T1, VMAT2 (Mus musculus, UniProt Q8BRU6); assay: Blocking study in normal mice, co-injection of DTBZ or raclopride; format: in vivo; design: from tissue; host or cells: living ICR mice and lesioned mice; brain regions dissected after iv injection; conditions: 30 min after iv
Description: While under isoflurane anesthesia, 0.15 mL of a 0.1% bovine serum albumin solution containing [^18F]tracers (10-20 μCi) were injected directly into the tail vein of ICR mice (22-25 g, male) The mice (n=3 for each time point) were sacrificed by cervical dislocation at indicated time points post injection. The organs of interest were removed and weighed, and the radioactivity was counted with an automatic gamma counter. The percentage dose per organ was calculated by a comparison of the tissue counts to suitably diluted aliquots of the injected material. Total activities of blood were calculated under the assumption that they were 7% of the total body weight. The % dose/g of samples was calculated by comparing the sample counts with the count of the diluted initial dose. Different regions corresponding to striatum (ST), hippocampus (HP), cerebellum (CB), and cortex (CX) were dissected out from the brain.
Blocking studies were carried out by co-injection (iv) of the ^18F tracer with (±)DTBZ (3 mg/kg) or raclopride (1.2 mg/kg) into the animals. Thirty minutes after the injection, the animals were sacrificed and the brain regions including ST, HP, CB and CX were dissected out and the % dose/g were calculated. The ratios of target (ST) vs nontarget (CB) were compared between control and blocked groups.

[2] = Partition coefficient 1-octanol/phosphate buffer; format: physicochemical; conditions: pH 7.4, 1-octanol and phosphate buffer
Description: Partition coefficients were measured by mixing the [^18F]tracer with 3 g each of 1-octanol and buffer (0.1 M phosphate, pH 7.4) in a test tube. The test tube was vortexed for 3 min at room temperature, followed by centrifugation for 5 min. Two weighed samples (0.5 g each) from the 1-octanol and buffer layers were counted in a well counter. The partition coefficient was determined by calculating the ratio of cpm/g of 1-octanol to that of buffer. Samples from the 1-octanol layer were re-partitioned until consistent partitions of coefficient values were obtained. Values are the mean±SEM of three independent experiments, each in duplicates.

VMAT2 [3] = target: T1, VMAT2; assay: Saturation binding of 18F ligands in mouse striatal homogenates; design: The basal forebrain regions of rat and mouse brains were then dissected; from tissue; host or cells: mouse striatal homogenate; mouse brain coronal sections; conditions: estimated based on S.A.=2000 Ci/mmole
Description: The basal forebrain regions of rat and mouse brains were then dissected. The tissue homogenates were prepared in 50 mM Hepes, pH 7.5 and 0.3 M sucrose. The specific binding of ^3H or ^18F ligands were determined following the procedures described (Scherman D, Raisman R, Ploska A, Agid Y., [^3H]Dihydrotetrabenazine, a new in vitro monoaminergic probe for human brain, J. Neurochem., 1988:50:1131-36). Total volume of reaction for the assay was 0.2 ml. […] In saturation experiments, increasing concentrations of labeled ligand […] in 50 μl buffer were incubated with 100 μl of homogenates (100-250 μg). Incubation was carried out routinely at room temperature for 90 min. The samples were then filtered through glass fiber filters No. 25 (Schleicher and Schuell, Keene, N.H.) and the bound radioactivity was determined for ^18F in a gamma counter (Packard 5000) with 70% efficiency. Filters containing bound ^3H ligand were dissolved in 7 ml Ecolite(+) overnight and the radioactivity was counted next day in the scintillation counter (Beckman) with 65% counting efficiency. […] Nonspecific binding was determined in the presence of 10 μM tetrabenazine. Both saturation and competition experiments were analyzed using the nonlinear least-square curve fitting program LIGAND. […]

VMAT2 [4] = target: VMAT2 (Rattus norvegicus, UniProt Q01827); assay: Blocking of pancreatic signal by DTBZ in rats; format: in vivo; design: from tissue; host or cells: living rats; organs dissected after iv injection; conditions: 30 min, DTBZ 3.8 mg/kg pretreatment
Description: (§1) Rats were pretreated with non-radiolabeled DBTZ (3.8 mg/kg) five minutes prior to injection with (+)-6b.

VMAT2 sites = VMAT2 sites (Mus musculus, UniProt Q8BRU6); conditions: lesioned mice
Description: Thirty minutes after injection, the mice were sacrificed and the brains removed. Different regions corresponding to striatum (ST), hippocampus (HP), cerebellum (CB), and cortex (CX) were dissected. In particular, the lesioned region was separated from non-lesioned area of the striatal tissues. Samples were counted in a gamma counter with two different window settings for F-18 and I-125, respectively, to obtain the regional distribution of each tracer.
To measure the degree of lesion, a dual-isotope experiment comparing the striatal uptakes in lesioned vs. unlesioned sites using [^18F]FP-DTBZ was performed. A marker [^125I]IPT (selective for dopamine transporters) was injected simultaneously.

[5] = Baboon microPET imaging (FIG. 7); format: in vivo; conditions: iv, 7 mCi, 70-90 min
[6] = Blocking of pancreatic signal by DTBZ in rats; format: in vivo; conditions: rat
Description: as §1

VMAT-2 = test system: T2, VMAT-2; assay: Blocking of pancreatic signal by DTBZ in rats; format: in vivo; conditions: rat
T2 construct: from tissue; host or cells: living rats; organs dissected after iv injection
Description: as §1

T1 sequence (Q8BRU6 whole entry): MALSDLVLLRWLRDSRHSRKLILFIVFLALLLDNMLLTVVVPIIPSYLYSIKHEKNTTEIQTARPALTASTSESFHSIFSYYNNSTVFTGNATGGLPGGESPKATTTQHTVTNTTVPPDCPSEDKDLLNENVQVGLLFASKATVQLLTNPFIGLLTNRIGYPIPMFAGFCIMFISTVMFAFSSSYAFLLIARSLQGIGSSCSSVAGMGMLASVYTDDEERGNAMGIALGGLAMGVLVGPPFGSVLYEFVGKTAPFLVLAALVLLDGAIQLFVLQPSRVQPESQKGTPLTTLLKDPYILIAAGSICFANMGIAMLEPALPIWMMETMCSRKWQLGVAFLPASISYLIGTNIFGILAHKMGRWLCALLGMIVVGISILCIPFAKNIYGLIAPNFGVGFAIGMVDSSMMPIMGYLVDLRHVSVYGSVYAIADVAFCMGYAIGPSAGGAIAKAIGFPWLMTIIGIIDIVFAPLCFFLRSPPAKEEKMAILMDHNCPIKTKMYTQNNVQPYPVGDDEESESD
VMAT2 (Rattus norvegicus, UniProt Q01827), sequence (Q01827 whole entry): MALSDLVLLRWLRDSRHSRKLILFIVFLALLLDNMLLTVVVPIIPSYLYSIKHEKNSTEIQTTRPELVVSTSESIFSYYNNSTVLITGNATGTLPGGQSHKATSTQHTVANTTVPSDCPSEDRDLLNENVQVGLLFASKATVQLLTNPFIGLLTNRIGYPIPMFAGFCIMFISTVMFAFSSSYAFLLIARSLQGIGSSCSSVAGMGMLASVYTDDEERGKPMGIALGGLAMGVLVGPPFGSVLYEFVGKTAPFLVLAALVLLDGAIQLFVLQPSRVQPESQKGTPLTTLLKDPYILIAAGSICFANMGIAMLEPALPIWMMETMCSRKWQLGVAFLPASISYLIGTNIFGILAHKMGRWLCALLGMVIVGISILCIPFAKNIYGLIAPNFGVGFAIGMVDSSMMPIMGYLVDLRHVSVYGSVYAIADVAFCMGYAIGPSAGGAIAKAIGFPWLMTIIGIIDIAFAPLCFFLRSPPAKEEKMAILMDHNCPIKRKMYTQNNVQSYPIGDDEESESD
VMAT2 sites, sequence (Q8BRU6 whole entry): as the sequence (Q8BRU6 whole entry) above

Compound: COc1cc2c(cc1OCCC[18F])CCN1CC(CC(C)C)C(O)CC21 (racemic) [[^18F]6b]
- Organ distribution Blood (VMAT2 [1]; Control): 1.41 ± 0.20 % dose/g
- Organ distribution Bone (VMAT2 [1]; Control): 6.06 ± 1.11 % dose/g
- Organ distribution Brain (VMAT2 [1]; Control): 1.40 ± 0.12 % dose/g
- Organ distribution Heart (VMAT2 [1]; Control): 2.05 ± 0.13 % dose/g
- Organ distribution Kidney (VMAT2 [1]; Control): 5.90 ± 0.42 % dose/g
- Organ distribution Liver (VMAT2 [1]; Control): 13.9 ± 1.15 % dose/g
- Organ distribution Lung (VMAT2 [1]; Control): 2.78 ± 0.20 % dose/g
- Organ distribution Muscle (VMAT2 [1]; Control): 1.06 ± 0.06 % dose/g
- Organ distribution Skin (VMAT2 [1]; Control): 1.48 ± 0.09 % dose/g
- Organ distribution Spleen (VMAT2 [1]; Control): 2.90 ± 0.14 % dose/g
- Ratio (vs CB) Cortex (VMAT2 [1]; Control): 1.15
- Ratio (vs CB) Hippocampus (VMAT2 [1]; Control): 1.36
- Ratio (vs CB) Hypothalamus (VMAT2 [1]; Control): 2.54
- Ratio (vs CB) Striatum (VMAT2 [1]; Control): 3.40
- Regional brain distribution Cerebellum (CB) (VMAT2 [1]; Control): 1.05 ± 0.09 % dose/g
- Regional brain distribution Cortex (VMAT2 [1]; Control): 1.21 ± 0.15 % dose/g
- Regional brain distribution Hippocampus (VMAT2 [1]; Control): 1.43 ± 0.12 % dose/g
- Regional brain distribution Hypothalamus (VMAT2 [1]; Control): 2.67 ± 0.30 % dose/g
- Regional brain distribution Striatum (VMAT2 [1]; Control): 3.57 ± 0.30 % dose/g
- Organ distribution Blood (VMAT2 [1]; with 1.2 mg/kg raclopride): 1.60 ± 0.08 % dose/g
- Organ distribution Bone (VMAT2 [1]; with 1.2 mg/kg raclopride): 6.03 ± 1.07 % dose/g
- Organ distribution Brain (VMAT2 [1]; with 1.2 mg/kg raclopride): 1.64 ± 0.16 % dose/g
- Organ distribution Heart (VMAT2 [1]; with 1.2 mg/kg raclopride): 2.29 ± 0.06 % dose/g
- Organ distribution Kidney (VMAT2 [1]; with 1.2 mg/kg raclopride): 6.01 ± 0.50 % dose/g
- Organ distribution Liver (VMAT2 [1]; with 1.2 mg/kg raclopride): 14.6 ± 0.44 % dose/g
- Organ distribution Lung (VMAT2 [1]; with 1.2 mg/kg raclopride): 3.34 ± 0.24 % dose/g
- Organ distribution Muscle (VMAT2 [1]; with 1.2 mg/kg raclopride): 1.15 ± 0.03 % dose/g
- Organ distribution Skin (VMAT2 [1]; with 1.2 mg/kg raclopride): 1.58 ± 0.09 % dose/g
- Organ distribution Spleen (VMAT2 [1]; with 1.2 mg/kg raclopride): 3.25 ± 0.20 % dose/g
- Ratio (vs CB) Cortex (VMAT2 [1]; with 1.2 mg/kg raclopride): 1.18
- Ratio (vs CB) Hippocampus (VMAT2 [1]; with 1.2 mg/kg raclopride): 1.59
- Ratio (vs CB) Hypothalamus (VMAT2 [1]; with 1.2 mg/kg raclopride): 2.12
- Ratio (vs CB) Striatum (VMAT2 [1]; with 1.2 mg/kg raclopride): 3.93
- Regional brain distribution Cerebellum (CB) (VMAT2 [1]; with 1.2 mg/kg raclopride): 1.19 ± 0.11 % dose/g
- Regional brain distribution Cortex (VMAT2 [1]; with 1.2 mg/kg raclopride): 1.41 ± 0.15 % dose/g
- Regional brain distribution Hippocampus (VMAT2 [1]; with 1.2 mg/kg raclopride): 1.89 ± 0.85 % dose/g
- Regional brain distribution Hypothalamus (VMAT2 [1]; with 1.2 mg/kg raclopride): 2.52 ± 0.77 % dose/g
- Regional brain distribution Striatum (VMAT2 [1]; with 1.2 mg/kg raclopride): 4.67 ± 1.29 % dose/g
- Organ distribution Blood (VMAT2 [1]; with 3 mg/kg (+)DTBZ): 1.67 ± 0.04 % dose/g
- Organ distribution Bone (VMAT2 [1]; with 3 mg/kg (+)DTBZ): 6.54 ± 0.84 % dose/g
- Organ distribution Brain (VMAT2 [1]; with 3 mg/kg (+)DTBZ): 0.86 ± 0.04 % dose/g
- Organ distribution Heart (VMAT2 [1]; with 3 mg/kg (+)DTBZ): 2.36 ± 0.07 % dose/g
- Organ distribution Kidney (VMAT2 [1]; with 3 mg/kg (+)DTBZ): 4.94 ± 3.38 % dose/g
- Organ distribution Liver (VMAT2 [1]; with 3 mg/kg (+)DTBZ): 14.0 ± 0.56 % dose/g
- Organ distribution Lung (VMAT2 [1]; with 3 mg/kg (+)DTBZ): 3.27 ± 0.17 % dose/g
- Organ distribution Muscle (VMAT2 [1]; with 3 mg/kg (+)DTBZ): 1.28 ± 0.07 % dose/g
- Organ distribution Skin (VMAT2 [1]; with 3 mg/kg (+)DTBZ): 1.67 ± 0.02 % dose/g
- Organ distribution Spleen (VMAT2 [1]; with 3 mg/kg (+)DTBZ): 2.67 ± 0.17 % dose/g
- Ratio (vs CB) Cortex (VMAT2 [1]; with 3 mg/kg (+)DTBZ): 1.03
- Ratio (vs CB) Hippocampus (VMAT2 [1]; with 3 mg/kg (+)DTBZ): 0.94
- Ratio (vs CB) Hypothalamus (VMAT2 [1]; with 3 mg/kg (+)DTBZ): 1.04
- Ratio (vs CB) Striatum (VMAT2 [1]; with 3 mg/kg (+)DTBZ): 0.98
- Regional brain distribution Cerebellum (CB) (VMAT2 [1]; with 3 mg/kg (+)DTBZ): 0.89 ± 0.16 % dose/g
- Regional brain distribution Cortex (VMAT2 [1]; with 3 mg/kg (+)DTBZ): 0.91 ± 0.13 % dose/g
- Regional brain distribution Hippocampus (VMAT2 [1]; with 3 mg/kg (+)DTBZ): 0.83 ± 0.27 % dose/g
- Regional brain distribution Hypothalamus (VMAT2 [1]; with 3 mg/kg (+)DTBZ): 0.92 ± 0.23 % dose/g
- Regional brain distribution Striatum (VMAT2 [1]; with 3 mg/kg (+)DTBZ): 0.87 ± 0.18 % dose/g
- logD at 3 min [2]: 2.61
- Kd (VMAT2 [3]): 0.48 nM

Compound: COc1cc2c(cc1OCCC[18F])CCN1C[C@@H](CC(C)C)[C@H](O)C[C@H]21 [[^18F]-(+)-6b]
- Blocking, Pancreas (VMAT2 [4]): 30%
- Blocking, Striatum (VMAT2 [4]): > 90%
- correlation (r) of lesioned-site uptake with [125I]IPT data (VMAT2 sites): 0.95
- microPET uptake [5]: no indication of skull (bone) uptake
- tissue uptake at 30 min ([6]; blood, 30 min Blocking, DTBZ 3.8 mg/kg pretreatment, read-out: Blood): 0.32 ± 0.04 %ID/g
- tissue uptake at 30 min ([6]; blood, 30 min Control, read-out: Blood): 0.2 ± 0.01 %ID/g
- tissue uptake at 30 min ([6]; cortex, 30 min Blocking, DTBZ 3.8 mg/kg pretreatment, read-out: Regional Brain Distribution Cortex): 0.26 ± 0.05 %ID/g
- tissue uptake at 30 min ([6]; cortex, 30 min Control, read-out: Regional Brain Distribution Cortex): 0.36 %ID/g
- tissue uptake at 30 min ([6]; hippocampus, 30 min Blocking, DTBZ 3.8 mg/kg pretreatment, read-out: Regional Brain Distribution Hippocampus): 0.25 ± 0.03 %ID/g
- tissue uptake at 30 min ([6]; hippocampus, 30 min Control, read-out: Regional Brain Distribution Hippocampus): 0.54 ± 0.03 %ID/g
- tissue uptake at 30 min ([6]; hypothalamus, 30 min Blocking, DTBZ 3.8 mg/kg pretreatment, read-out: Regional Brain Distribution Hypothalamus): 0.25 ± 0.04 %ID/g
- tissue uptake at 30 min ([6]; hypothalamus, 30 min Control, read-out: Regional Brain Distribution Hypothalamus): 1.2 ± 0.07 %ID/g
- tissue uptake at 30 min ([6]; striatum, 30 min Blocking, DTBZ 3.8 mg/kg pretreatment, read-out: Regional Brain Distribution Striatum): 0.27 ± 0.02 %ID/g
- tissue uptake at 30 min ([6]; striatum, 30 min Control, read-out: Regional Brain Distribution Striatum): 1.94 ± 0.03 %ID/g
- tissue uptake at 30 min (VMAT-2; cerebellum, 30 min Blocking, DTBZ 3.8 mg/kg pretreatment, read-out: Regional Brain Distribution Cerebellum): 0.25 ± 0.03 %ID/g
- tissue uptake at 30 min (VMAT-2; cerebellum, 30 min Control, read-out: Regional Brain Distribution Cerebellum): 0.36 %ID/g
- tissue uptake at 30 min (VMAT-2; pancreas, 30 min Blocking, DTBZ 3.8 mg/kg pretreatment, read-out: Pancreas): 3.1 ± 0.3 %ID/g
- tissue uptake at 30 min (VMAT-2; pancreas, 30 min Control, read-out: Pancreas): 4.39 ± 0.64 %ID/g
